# From publication PMC10610214 (Pharmaceuticals, 2023)
# Legend:
# [1] = tested on: scopolamine-induced AD mice; experiment: Morris water maze, scopolamine-induced AD mouse model; assay type: in vivo
# Experimental: Mice were reared in a temperature and humidity controlled environment with free access to food and water, with self-adaptive rearing for 4 days.
# According to behavioral experiments, 30 mice were randomly divided into 5 groups. […] On day 7, scopolamine hydrobromide was injected intraperitoneally into the of the mouse to establish an AD model. The control group were only injected normal saline. After 30 min, the bodyweight changes in mice during the administration period were recorded.
# The MWM is a white circular pool (150 cm in diameter, 60 cm in height; no features on the inner surface) with a water height of 46 cm and a white platform (10 cm in diameter) submerged 1 cm below the water surface. White titanium dioxide (0.25 g/L) was added to make the water turbid to make the platform invisible, and the platform was fixed in the third quadrant of the circular pool (four quadrants in total). Training was performed by allowing mice to stay for 15 s after reaching the platform. If the mice successfully found the platform within 60 s, they were allowed to stay on the platform for 15 s; otherwise, they were brought to the platform and stayed for 15 s. The training was performed four times a day for a total of 4 days of training. Except for the control group, animals were intraperitoneally injected with scopolamine 90 min before the test to induce cognitive deficits mimicking. On day 5, a probe trial was conducted with the platform removed. Mice were placed in the quadrant opposite the target for 60 s, and their swim path was recorded to evaluate memory retention. Performance measures included latency to reach the platform location and time spent in each quadrant.
# AChE = target: T1, AChE (Electrophorus electricus, UniProt O42275); experiment: Kinetic study of AChE inhibition (Lineweaver–Burk); assay type: biochemical
# T1 construct: AChE (from electric eel); purchased Sigma Chemical Company (St. Louis, MO, USA)
# T1 sequence (O42275 24-633): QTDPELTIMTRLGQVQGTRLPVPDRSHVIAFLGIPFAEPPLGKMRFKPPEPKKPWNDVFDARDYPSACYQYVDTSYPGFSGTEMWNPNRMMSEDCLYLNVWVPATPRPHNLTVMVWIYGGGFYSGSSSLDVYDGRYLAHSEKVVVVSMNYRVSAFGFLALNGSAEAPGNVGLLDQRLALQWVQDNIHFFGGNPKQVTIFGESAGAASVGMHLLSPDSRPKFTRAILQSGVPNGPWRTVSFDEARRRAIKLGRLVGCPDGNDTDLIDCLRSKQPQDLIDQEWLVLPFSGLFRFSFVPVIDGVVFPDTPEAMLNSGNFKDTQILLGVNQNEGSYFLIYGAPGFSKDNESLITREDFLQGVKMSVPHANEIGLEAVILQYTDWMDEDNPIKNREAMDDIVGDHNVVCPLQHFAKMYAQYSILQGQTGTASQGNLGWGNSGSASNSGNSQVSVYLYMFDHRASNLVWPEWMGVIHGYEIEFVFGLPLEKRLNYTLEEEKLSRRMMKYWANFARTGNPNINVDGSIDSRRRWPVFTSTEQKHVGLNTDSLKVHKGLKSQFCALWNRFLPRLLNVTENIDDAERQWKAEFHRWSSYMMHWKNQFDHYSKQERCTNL
# Experimental: The specific steps are similar to those described in Section 4.3 for the enzyme inhibition assay. In brief, 100 μL of different concentrations of 4h (0, 0.075, 0.15, and 0.3 μM)/4h (0, 3, 6, and 12 μM) and 100 μL of different concentrations of AChE/BuChE (1, 0.5, 0.25, 0.125, and 0.0625 U/mL) were added into 48-well plates and then co-incubated at 37 °C for 30 min. After the end of incubation, 100 μL of ATCI/BTCI (0.35 mM), 100 μL of PB solution, and 100 μL DTNB (0.35 mM) were added, and then changes in absorbance were measured at different times at 412 nm by multifunctional microplate reader, and the catalytic reaction rate of AChE/BuChE was determined. All concentrations are final. With the enzyme reaction rate V as the ordinate and AChE/BuChE concentration as the abscissa, the curve was drawn to determine the reversibility of the compound to AChE/BuChE.
# In order to determination of inhibition types and the constant of AChE/BuChE, the concentration of AChE/BuChE (0.5 U/mL) in the reaction system was fixed. Five different substrate concentrations and four different concentrations of test compound 4h were used to measure the absorbance changes at different times at 412 nm. The reciprocal of the enzymatic reaction rate (1/V) was taken as the ordinate, and the reciprocal of the substrate ATCI/BTCI concentration (1/S) was taken as the abscissa.
# […]. […]
# HepG2 cells = experiment: Hepatotoxicity in HepG2 cells (MTT); assay type: cell-based; conditions: 10, 30 and 50 μM
# Experimental: The hepatotoxicity of compound 4h in normal AML-12 hepatocytes and HepG2 liver cancer cells was examined by MTT method. AML-12 cells and HepG2 cells were seeded into 96-well plates at a density of 5.0 × 10^3 cells per well, respectively. After the cells were incubated overnight, the old medium was discarded. The cells were incubated for 48 h with fresh medium containing various concentrations of the test compound. After 48 h of incubation, 20 μL of MTT (5 mg/mL) was added to each well and incubate for an additional 4 h. Formazan was dissolved with DMSO (150 μL). […]
# [2] = Morris water maze probe trial, day 5
compound,measurement,setting,value
O=C1c2cc(NS(=O)(=O)c3ccccc3F)ccc2-n2c1nc1ccccc1c2=O [4h],Bodyweight of mice,"[1]; 10 and 30 mg/kg, gavage, 7 days",did not cause any abnormal fluctuations in the bodyweight of mice
same,Dwell time in the target quadrant,[1]; [2],markedly higher in the 30 mg/kg dose group than those in the model and 10 mg/kg dose groups
same,Number of virtual platform crossings,[1]; [2],markedly higher in the 30 mg/kg dose group than those in the model and 10 mg/kg dose groups
same,Escape latency,"[1]; Morris water maze, 10 and 30 mg/kg gavage, training days",decreased in a dose-dependent manner
same,AChE inhibition type,AChE; Lineweaver–Burk double-reciprocal plot,mixed-type inhibition
same,Ki,AChE; Lineweaver–Burk secondary plot,0.0831 µM
same,Hepatotoxicity in HepG2 cells,HepG2 cells,had no toxicity
